Source: ChEMBL document CHEMBL1201862, “PubChem BioAssay data set” (2004)
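Tested at 5 concentrations; 48 h exposure; 96-well plates; endpoints linearly interpolated, else capped at highest concentration. At the GI50, growth is halved.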 Calls of active or inactive are those of the source. No stated cut-off is given here; in the data, active = GI50 up to about 1.1 µM and inactive = higher.

Columns and labels:
Assay in all cases: DTP human tumour cell line panel, 48 h
A498 = test system: A498
MDA-MB-231 = test system: MDA-MB-231
BT-549 = test system: BT-549
SF-295 = test system: SF-295
SF-539 = test system: SF-539
MCF7 = test system: MCF7
UO-31 = test system: UO-31
Hs-578T = test system: Hs-578T
MDA-N = test system: MDA-N
HL-60 = test system: HL-60
NCI-H226 = test system: NCI-H226
CAKI-1 = test system: CAKI-1
OVCAR-3 = test system: OVCAR-3
OVCAR-5 = test system: OVCAR-5
HOP-92 = test system: HOP-92
RXF 393 = test system: RXF 393
HT-29 = test system: HT-29
SW-620 = test system: SW-620
HCT-116 = test system: HCT-116
Malme-3M = test system: Malme-3M
RPMI-8226 = test system: RPMI-8226
SK-MEL-28 = test system: SK-MEL-28
NCI-H23 = test system: NCI-H23
CCRF-CEM = test system: CCRF-CEM
EKVX = test system: EKVX
ACHN = test system: ACHN
HOP-62 = test system: HOP-62
SR = test system: SR
SNB-75 = test system: SNB-75
HCT-15 = test system: HCT-15
DU-145 = test system: DU-145
TK-10 = test system: TK-10
IGROV-1 = test system: IGROV-1
NCI-H522 = test system: NCI-H522
LOX IMVI = test system: LOX IMVI
MDA-MB-435 = test system: MDA-MB-435
SN12C = test system: SN12C
786-0 = test system: 786-0
PC-3 = test system: PC-3
KM12 = test system: KM12
NCI/ADR-RES = test system: NCI/ADR-RES
SK-MEL-2 = test system: SK-MEL-2
U-251 = test system: U-251
SK-OV-3 = test system: SK-OV-3
SF-268 = test system: SF-268
K562 = test system: K562
HCC 2998 = test system: HCC 2998
A549 = test system: A549
UACC-62 = test system: UACC-62
MOLT-4 = test system: MOLT-4
NCI-H460 = test system: NCI-H460
UACC-257 = test system: UACC-257
OVCAR-4 = test system: OVCAR-4
T47D = test system: T47D
M14 = test system: M14
OVCAR-8 = test system: OVCAR-8
COLO 205 = test system: COLO 205
SNB-19 = test system: SNB-19
SK-MEL-5 = test system: SK-MEL-5

CC(=O)/C(=C(/Br)I)c1ccccc1
GI50 (A498): 14.5 µM (inactive)
GI50 (MDA-MB-231): 13.2 µM (inactive)
GI50 (BT-549): 1.97 µM (inactive)
GI50 (SF-295): 15.5 µM (inactive)
GI50 (SF-539): 16.6 µM (inactive)
GI50 (MCF7): 6.47 µM (inactive)
GI50 (UO-31): 12.4 µM (inactive)
GI50 (Hs-578T): 30.7 µM (inactive)
GI50 (MDA-N): 3.45 µM (inactive)
GI50 (HL-60): 1.95 µM (inactive)
GI50 (NCI-H226): 7.45 µM (inactive)
GI50 (CAKI-1): 3.03 µM (inactive)
GI50 (OVCAR-3): 6.49 µM (inactive)
GI50 (OVCAR-5): 18.1 µM (inactive)
GI50 (HOP-92): 10.5 µM (inactive)
GI50 (RXF 393): 3.36 µM (inactive)
GI50 (HT-29): 4.06 µM (inactive)
GI50 (SW-620): 3.15 µM (inactive)
GI50 (HCT-116): 4.52 µM (inactive)
GI50 (Malme-3M): 10.9 µM (inactive)
GI50 (RPMI-8226): 2.58 µM (inactive)
GI50 (SK-MEL-28): 11.2 µM (inactive)
GI50 (NCI-H23): 4.13 µM (inactive)
GI50 (CCRF-CEM): 1.58 µM (inactive)
GI50 (EKVX): 12.6 µM (inactive)
GI50 (ACHN): 13 µM (inactive)
GI50 (HOP-62): 14.1 µM (inactive)
GI50 (SR): 1.94 µM (inactive)
GI50 (SNB-75): 14.2 µM (inactive)
GI50 (HCT-15): 4.32 µM
GI50 (DU-145): 15.8 µM (inactive)
GI50 (TK-10): 21 µM (inactive)
GI50 (IGROV-1): 10.9 µM (inactive)
GI50 (NCI-H522): 0.442 µM (active)
GI50 (LOX IMVI): 9.84 µM (inactive)
GI50 (MDA-MB-435): 3.01 µM (inactive)
GI50 (SN12C): 5.26 µM (inactive)
GI50 (786-0): 9.04 µM (inactive)
GI50 (PC-3): 16.8 µM (inactive)
GI50 (KM12): 14.8 µM (inactive)
GI50 (NCI/ADR-RES): 9.35 µM (inactive)
GI50 (SK-MEL-2): 4.82 µM (inactive)
GI50 (U-251): 13.1 µM (inactive)
GI50 (SK-OV-3): 28.6 µM (inactive)
GI50 (SF-268): 12 µM (inactive)
GI50 (K562): 2.82 µM (inactive)
GI50 (HCC 2998): 6.81 µM (inactive)
GI50 (A549): 20 µM (inactive)
GI50 (UACC-62): 12.8 µM (inactive)
GI50 (MOLT-4): 1.73 µM (inactive)
GI50 (NCI-H460): 20.3 µM (inactive)
GI50 (UACC-257): 12.6 µM (inactive)
GI50 (OVCAR-4): 12.5 µM (inactive)
GI50 (T47D): 3.48 µM (inactive)
GI50 (M14): 6.87 µM (inactive)
GI50 (OVCAR-8): 11.6 µM (inactive)
GI50 (COLO 205): 13.6 µM (inactive)
GI50 (SNB-19): 17.3 µM (inactive)
GI50 (SK-MEL-5): 7.71 µM (inactive)

CCCCCCCCCCCOCCC1C(C(C)OCCN2CCCC2)OC2OC(C)(C)OC21 (stereo not drawn)
GI50 (A498): 13 µM (inactive)
GI50 (MDA-MB-231): 1.85 µM (inactive)
GI50 (BT-549): 3.13 µM (inactive)
GI50 (SF-295): 2.32 µM (inactive)
GI50 (SF-539): 2.07 µM (inactive)
GI50 (MCF7): 2.65 µM (inactive)
GI50 (UO-31): 2.51 µM (inactive)
GI50 (Hs-578T): 2.68 µM (inactive)
GI50 (MDA-N): 1.95 µM (inactive)
GI50 (HL-60): 1.11 µM (active)
GI50 (NCI-H226): 8.79 µM (inactive)
GI50 (CAKI-1): 2.4 µM (inactive)
GI50 (OVCAR-3): 4.95 µM (inactive)
GI50 (OVCAR-5): 3.67 µM (inactive)
GI50 (HOP-92): 1.82 µM (inactive)
GI50 (RXF 393): 2.39 µM (inactive)
GI50 (HT-29): 1.82 µM (inactive)
GI50 (SW-620): 1.78 µM (inactive)
GI50 (HCT-116): 1.82 µM (inactive)
GI50 (Malme-3M): 1.6 µM (inactive)
GI50 (RPMI-8226): 2.07 µM (inactive)
GI50 (SK-MEL-28): 1.64 µM (inactive)
GI50 (NCI-H23): 3.91 µM (inactive)
GI50 (CCRF-CEM): 3.6 µM (inactive)
GI50 (EKVX): 4.47 µM (inactive)
GI50 (ACHN): 4.63 µM (inactive)
GI50 (HOP-62): 1.91 µM (inactive)
GI50 (SR): 0.46 µM (active)
GI50 (SNB-75): 2.47 µM (inactive)
GI50 (HCT-15): 2.04 µM
GI50 (DU-145): 5.43 µM (inactive)
GI50 (TK-10): 2.37 µM (inactive)
GI50 (IGROV-1): 2.42 µM (inactive)
GI50 (NCI-H522): 0.853 µM (active)
GI50 (LOX IMVI): 1.46 µM (inactive)
GI50 (MDA-MB-435): 1.89 µM (inactive)
GI50 (SN12C): 2.53 µM (inactive)
GI50 (786-0): 2.62 µM (inactive)
GI50 (PC-3): 1.97 µM (inactive)
GI50 (KM12): 0.681 µM (active)
GI50 (NCI/ADR-RES): 3.41 µM (inactive)
GI50 (SK-MEL-2): 1.76 µM (inactive)
GI50 (U-251): 2.24 µM (inactive)
GI50 (SK-OV-3): 4.24 µM (inactive)
GI50 (SF-268): 4.59 µM (inactive)
GI50 (K562): 2.25 µM (inactive)
GI50 (HCC 2998): 1.69 µM (inactive)
GI50 (A549): 4.82 µM (inactive)
GI50 (UACC-62): 1.81 µM (inactive)
GI50 (MOLT-4): 1.68 µM (inactive)
GI50 (NCI-H460): 2.07 µM (inactive)
GI50 (UACC-257): 1.98 µM (inactive)
GI50 (OVCAR-4): 3.98 µM (inactive)
GI50 (T47D): 2.24 µM (inactive)
GI50 (M14): 0.869 µM (active)
GI50 (OVCAR-8): 3.13 µM (inactive)
GI50 (COLO 205): 1.92 µM (inactive)
GI50 (SNB-19): 5.56 µM (inactive)
GI50 (SK-MEL-5): 1.82 µM (inactive)
